The values that follow come from US20050026263A1, “Multi-functional antibodies” (THE REGENTS OF THE UNIVERSITY OF CALIFORNIA, priority 2003, published 2005).

“Also recorded” adds a separate entry of the source.

In one experiment the test system is antibody 2D12.5. The experiment in a line: competitive immunoassay (ELISA) of metal-DOTA complexes relative to Y-DOTA. Format: binding, murine. To be noted: for binding compared with the original Y^3+ complex / other rare earths: DOTA complexes, 37° C.; for relative binding of Y-DOTA molecules with different sidechain locations (FIG. 17): Y complexes. An excerpt:
FIG. 13 is graphical display showing the relative binding of metal-DOTA complexes to antibody 2D 12.5. A representative set of competitive binding curves obtained from ELISA experiments described in Example 3 below. Error bars (representing the standard error of the mean) are shown, but are generally smaller than the data points.
To determine the metal selectivity of the antibody 2D12.5, a competitive immunoassays was used to measure the binding constants of multiple metal-DOTA complexes relative to Y^3+-DOTA.
We examined the monoclonal antibody 2D12.5, initially developed to bind specifically to Y-DOTA for targeted radiotherapy (see, e.g., Goodwin et al., Cancer Res. 54: 5937-5946 (1994)), in order to determine the scope of its activity. To assess the metal selectivity of antibody 2D12.5, a competitive immunoassay to measure the binding constants of various metal-DOTA complexes relative to the original Y^3+ complex was developed (FIG. 12). Briefly, 2D12.5 was incubated at 37° C. in the presence of immobilized Y-DOTA and a soluble metal-DOTA competitor. The metal-DOTA concentration was varied from μM to pM in order to determine the relative binding affinity of 2D12.5 for each metal chelate in comparison to Y-DOTA. Binding was measured by standard methods known to those of skill in the art. The DOTA analog used to evaluate binding was [S]-2-(p-nitrobenzyl)-DOTA, which is similar to the original antigen.
(In general: In an ELISA, binding on a coated surface is turned into a signal by an enzyme label.)

The next experiment relates to 2D12.5. The experiment in a line: relative binding affinities of metal NBD/AABD complexes and DTPA to 2D12.5. Further details: species or system murine. As for the experimental part:
FIG. 18 is a graphical display showing the relative binding affinities of the NBD complexes of various metal ions relative to Y-NBD.
Relative binding affinities of NBD complexes of various metals ions relative to Y-NBD were determined by methods known in the art and described herein and shown in FIG. 18.

Another experiment deals with N85D_G54C 2D12.5 mutant. The experiment in a line: permanent binding of metal-AABD and metal-NBD complexes, Western blot (Example 10). The following applies: metal-NBD complexes. As for the experimental part:
The native antibody 2D12.5 binds all rare earth DOTA complexes with high affinity (Corneillie et al., J. Am. Chem. Soc. 125:3436-37, 2003) and other metals with affinities that are weaker. […] Therefore, this mutant was selected for the present example.
Metallation of Chelates with stable metal cations. Metals tested in this experiment included Y, La, Lu, Sr and Sc. Stock chelate concentrations were measured using a Co-57 metal binding assay (Meares et al., Anal. Biochem. 142:68-78, 1984). Stock metal solutions (approximately 0.2 M) were prepared by dissolving the appropriate gravimetrically measured rare earth chloride salt in 0.05 M HCl. As an example, YCl3 (2.5 equivalents) was added to 25 μL of NBD ([…]) dissolved in 0.1 M tetramethylammonium acetate, and the pH was adjusted to 5 by the addition of triethylamine. The metallation was allowed to proceed overnight at 50° C. Samples were promptly frozen at −70° C., and metallation efficiency was assessed using a competitive metal-binding assay with Co-57^3. Excess metal was scavenged with DTPA, which has very low affinity for the antibody (<<1%).
Metal-AABD and metal-NBD complexes were incubated with 2D12.5 Fab mutant N85D_G54C and samples denatured, reduced and separated by SDS-PAGE, as described for Y-90 in the previous examples. […]
A general note: Immunoblotting shows a protein as a band on a membrane.

Consider `O=C(O)CN1CCN(CC(=O)O)CCN(CC(=O)O)[C@H](Cc2ccc([N+](=O)[O-])cc2)CN(CC(=O)O)CC1` (single isomer, unassigned) [(R)-isomer of 2-(4-nitrobenzyl)-DOTA], for which, in the experiment on antibody 2D12.5 (coordinated metal Y^3+ (FIG. 16)), the “decrease of affinity as compared to the (S), Λ isomer” value was “less than an order of magnitude”.
For `O=C(O)CN(CCN(CC(=O)O)CC(=O)O)CCN(CC(=O)O)CC(=O)O` [DTPA], the “affinity for the antibody” value in the experiment on 2D12.5 was less than 1%.
With `O=C([O-])CN1CCN(CC(=O)[O-])CCN(CC(=O)[O-])CCN(CC(=O)[O-])CC1.[Eu+3]` [Eu-DOTA], the “binding compared with the original Y^3+ complex / other rare earths” value in the experiment with antibody 2D12.5 is “strongest binders”.
As for `O=C([O-])CN1CCN(CC(=O)[O-])CCN(CC(=O)O)CCN(CC(=O)[O-])CC1.[Gd+3]` [Gd-DOTA], in the experiment on antibody 2D12.5, the “binding compared with the original Y^3+ complex / other rare earths” value is reported as “bind more tightly; also recorded: strongest binders”.
As to `O=C(O)CN1CCN(CC(=O)O)CCN(CC(=O)O)[C@@H](Cc2ccc([N+](=O)[O-])cc2)CN(CC(=O)O)CC1` [NBD], the “permanent bond with N85D_G54C 2D12.5, non-electrophilic negative control” value in the experiment with N85D_G54C 2D12.5 mutant is reported as “negative”.
Turning to `O=C(O)CN1CCN(CC(=O)O)CCN(CC(=O)O)[C@@H](Cc2ccc([N+](=O)[O-])cc2)CN(CC(=O)O)CC1` [Y-NBD, (S)-2-(4-nitrobenzyl)-DOTA], the “relative binding of Y-DOTA molecules with different sidechain locations (FIG. 17)” value in the experiment with antibody 2D12.5 was “clearly stronger”. Besides, in the experiment on antibody 2D12.5 (coordinated metal Y^3+), the “relative binding of Y-DOTA isomers (FIG. 16)” value is “preferred isomer for binding”. Also, the “binding rank of NBD complexes among the rare earths” value in the experiment with 2D12.5 is “one of the strongest binders”.
As for “(5-Amino-2-methoxy-phenyl)-carboxymethyl)-DOTA”, the “relative binding of Y-DOTA molecules with different sidechain locations (FIG. 17)” value in the experiment with antibody 2D12.5 is “decrease in the binding affinity”.
